This note sets out measurements from patent publication US20090291938A1 (TAKEDA PHARMACEUTICAL COMPANY LIMITED, priority 2007, published 2009).

The first assay deals with HT29 human colorectal adenocarcinoma cell line. Put plainly: cell proliferation assay (Cell Titer-Glo luminescent cell viability assay). The assay is classed as cell-based. The following applies: HT-29, 72 h, read-out: pIC50 (converted). In a few lines: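 Cells grown in DMEM with 10% FBS and exposed to compounds for 72 h. Viability read by CellTiter-Glo luminescence, expressed as percentage of DMSO-treated cells.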
(ATP-based viability assays read luminescence as a measure of living cells.)
Regarding `COc1cc(C(=O)NC2CCN(C)CC2)ccc1Nc1ncc2c(n1)N(C1CCCC1)CC1(CCC1)C(=O)N2C` [Compound 179, 4-(9′-Cyclopentyl-5′-methyl-6′-oxo-5′,6′,8′,9′-tetrahydrospiro[cyclobutane-1,7′-pyrimido[4,5-b][1,4]diazepine]-2′-ylamino)-3-methoxy-N-(1-methylpiperidin-4-yl)benzamide], the IC50 is less than 1 nM.

`CCC1(C)CN(C2CCCC2)c2nc(Nc3ccc(C(=O)NC4CCN(C)CC4)cc3OC)ncc2N(C)C1=O` (centres unmarked) [Compound 131, 4-(9-Cyclopentyl-7-ethyl-5,7-dimethyl-6-oxo-6,7,8,9-tetrahydro-5H-pyrimido[4,5-b][1,4]diazepin-2-ylamino)-3-methoxy-N-(1-methylpiperidin-4-yl)benzamide]: the IC50 is 3.16 to 10 nM.

The same assay, now with this note: HT-29, cell proliferative assay, HT29 cells, 72 hr treatment, values given as ranges, read-out: pIC50 (converted).
Regarding `COc1cc(C(=O)NC2CCN(C(C)C)CC2)ccc1Nc1ncc2c(n1)N(C1CCCC1)CCC(=O)N2C` [Compound 77, 4-(9-cyclopentyl-5-methyl-6-oxo-6,7,8,9-tetrahydro-5H-pyrimido[4,5-b][1,4]diazepin-2-ylamino)-N-(1-isopropylpiperidin-4-yl)-3-methoxybenzamide], the IC50 was greater than 10 nM.

Turning to `CC[C@]1(C)CN(C2CCCCC2)c2nc(Nc3ccc(C(=O)N[C@H]4CCCNC4)cc3OC)ncc2N(C)C1=O` [Compound 151, 4-((R)-9-cyclohexyl-7-ethyl-5,7-dimethyl-6-oxo-6,7,8,9-tetrahydro-5H-pyrimido[4,5-b][1,4]diazepin-2-ylamino)-3-methoxy-N-((S)-piperidin-3-yl)benzamide], the IC50 is 3.16 to 10 nM.

Consider `COc1cc(C(=O)NC2CCN(C)CC2)ccc1Nc1ncc2c(n1)N(C1CCC1)CC(C)(C)C(=O)N2C` [Compound 153, 4-(9-cyclobutyl-5,7,7-trimethyl-6-oxo-6,7,8,9-tetrahydro-5H-pyrimido[4,5-b][1,4]diazepin-2-ylamino)-3-methoxy-N-(1-methylpiperidin-4-yl)benzamide], for which the IC50 was 3.16 to 10 nM.

Take `COc1cc(C(=O)NCC2CCN(C)CC2)ccc1Nc1ncc2c(n1)N(C1CCCC1)CC(C)(C)C(=O)N2C` [Compound 88]: the IC50 is greater than 10 nM.

On to `COc1cc(C(=O)N[C@@H]2CCCNC2)ccc1Nc1ncc2c(n1)N(C1CCCC1)CC1(CCC1)C(=O)N2C` [Compound 181, (R)-4-(9′-cyclopentyl-5′-methyl-6′-oxo-5′,6′,8′,9′-tetrahydrospiro[cyclobutane-1,7′-pyrimido[4,5-b][1,4]diazepine]-2′-ylamino)-3-methoxy-N-(piperidin-3-yl)benzamide], for which the IC50 is 3.16 to 10 nM.

Regarding `COc1cc(C(=O)NC2CCN(C)CC2)ccc1Nc1ncc2c(n1)N(C1CCCCC1)CC1(CC1)C(=O)N2C` [Compound 169, 4-(9′-cyclohexyl-5′-methyl-6′-oxo-5′,6′,8′,9′-tetrahydrospiro[cyclopropane-1,7′-pyrimido[4,5-b][1,4]diazepine]-2′-ylamino)-3-methoxy-N-(1-methylpiperidin-4-yl)benzamide], the IC50 is 1 to 2.51 nM.

On to `COc1cc(C(=O)NC2CNC2)ccc1Nc1ncc2c(n1)N(C1CCCCC1)CC(C)(C)C(=O)N2C` [Compound 118, N-(azetidin-3-yl)-4-(9-cyclohexyl-5,7,7-trimethyl-6-oxo-6,7,8,9-tetrahydro-5H-pyrimido[4,5-b][1,4]diazepin-2-ylamino)-3-methoxybenzamide], for which the IC50 is 3.16 to 10 nM.

On to `COc1cc(C(=O)NC2CN(C)C2)ccc1Nc1ncc2c(n1)N(C1CCCC1)CCC(=O)N2C` [Compound 47, 4-(9-cyclopentyl-5-methyl-6-oxo-6,7,8,9-tetrahydro-5H-pyrimido[4,5-b][1,4]diazepin-2-ylamino)-3-methoxy-N-(1-methylazetidin-3-yl)benzamide], for which the IC50 was 3.16 to 10 nM.

Regarding `C=C[C@]1(C)CN(C2CCCC2)c2nc(Nc3ccc(C(=O)NN4CCN(C)CC4)cc3OC)ncc2N(C)C1=O` [Compound 243, (R)-4-(9-cyclopentyl-5,7-dimethyl-6-oxo-7-vinyl-6,7,8,9-tetrahydro-5H-pyrimido[4,5-b][1,4]diazepin-2-ylamino)-3-methoxy-N-(4-methylpiperazin-1-yl)benzamide], the IC50 is less than 1 nM.

Turning to `CC#CC[C@@H]1CN(C2CCCC2)c2nc(Nc3ccc(C(=O)NC4CCN(C)CC4)cc3OC)ncc2N(C)C1=O` [Compound 216, (R)-4-(7-(but-2-ynyl)-9-cyclopentyl-5-methyl-6-oxo-6,7,8,9-tetrahydro-5H-pyrimido[4,5-b][1,4]diazepin-2-ylamino)-3-methoxy-N-(1-methylpiperidin-4-yl)benzamide], the IC50 is 1 to 2.51 nM.

Regarding `C/C=C\CC1CN(C2CCCC2)c2nc(Nc3ccc(C(=O)NC4CCN(C)CC4)cc3OC)ncc2N(C)C1=O` (centres unmarked) [Compound 218, (Z)-4-(7-(but-2-enyl)-9-cyclopentyl-5-methyl-6-oxo-6,7,8,9-tetrahydro-5H-pyrimido[4,5-b][1,4]diazepin-2-ylamino)-3-methoxy-N-(1-methylpiperidin-4-yl)benzamide], the IC50 is less than 1 nM.

`COc1cc(C(=O)N[C@@H]2CCN(C)C2)ccc1Nc1ncc2c(n1)N(C1CCCC1)CC(C)(C)C(=O)N2C` [Compound 96, (R)-4-(9-cyclopentyl-5,7,7-trimethyl-6-oxo-6,7,8,9-tetrahydro-5H-pyrimido[4,5-b][1,4]diazepin-2-ylamino)-3-methoxy-N-(1-methylpyrrolidin-3-yl)benzamide]: the IC50 was 3.16 to 10 nM.

On to `COc1cc(C(=O)NC2CN(C)C2)ccc1Nc1ncc2c(n1)N(C1CCC1)CC(C)(C)C(=O)N2C` [Compound 154, 4-(9-cyclobutyl-5,7,7-trimethyl-6-oxo-6,7,8,9-tetrahydro-5H-pyrimido[4,5-b][1,4]diazepin-2-ylamino)-3-methoxy-N-(1-methylazetidin-3-yl)benzamide], for which the IC50 was 3.16 to 10 nM.

Take `CC[C@@]1(C)CN(C2CCCCC2)c2nc(Nc3ccc(C(=O)N[C@@H]4CCCNC4)cc3OC)ncc2N(C)C1=O` [Compound 148, 4-((S)-9-cyclohexyl-7-ethyl-5,7-dimethyl-6-oxo-6,7,8,9-tetrahydro-5H-pyrimido[4,5-b][1,4]diazepin-2-ylamino)-3-methoxy-N-((R)-piperidin-3-yl)benzamide]: the IC50 was 3.16 to 10 nM.

As to `C=CC[C@H]1CN(C2CCCC2)c2nc(Nc3ccc(C(=O)N[C@H]4CCCN(C)C4)cc3OC)ncc2N(C)C1=O` [Compound 198, 4-((S)-7-allyl-9-cyclopentyl-5-methyl-6-oxo-6,7,8,9-tetrahydro-5H-pyrimido[4,5-b][1,4]diazepin-2-ylamino)-3-methoxy-N-((S)-1-methylpiperidin-3-yl)benzamide], the IC50 is less than 1 nM.

Regarding `C=C[C@@]1(C)CN(C2CCCC2)c2nc(Nc3ccc(C(=O)NN4CCN(C)CC4)cc3OC)ncc2N(C)C1=O` [Compound 244, (S)-4-(9-cyclopentyl-5,7-dimethyl-6-oxo-7-vinyl-6,7,8,9-tetrahydro-5H-pyrimido[4,5-b][1,4]diazepin-2-ylamino)-3-methoxy-N-(4-methylpiperazin-1-yl)benzamide], the IC50 is greater than 10 nM.

On to `C=C(F)CC1CN(C2CCCC2)c2nc(Nc3ccc(C(=O)NC4CCN(C)CC4)cc3OC)ncc2N(C)C1=O` (centres unmarked) [Compound 231, 4-(9-cyclopentyl-7-(2-fluoroallyl)-5-methyl-6-oxo-6,7,8,9-tetrahydro-5H-pyrimido[4,5-b][1,4]diazepin-2-ylamino)-3-methoxy-N-(1-methylpiperidin-4-yl)benzamide], for which the IC50 is greater than 10 nM.

With `COc1cc(C(=O)NC2CCN(C(C)=O)CC2)ccc1Nc1ncc2c(n1)N(C1CCCC1)CCC(=O)N2C` [Compound 39, N-(1-acetylpiperidin-4-yl)-4-(9-cyclopentyl-5-methyl-6-oxo-6,7,8,9-tetrahydro-5H-pyrimido[4,5-b][1,4]diazepin-2-ylamino)-3-methoxybenzamide], the IC50 is 1 to 2.51 nM.

Consider `C#CCC1CN(C2CCCC2)c2nc(Nc3ccc(C(=O)NC4CCN(C)CC4)cc3OC)ncc2N(C)C1=O` (centres unmarked) [Compound 209], for which the IC50 is 1 to 2.51 nM.

As for `COc1cc(C(=O)N[C@@H]2CCCN(C)C2)ccc1Nc1ncc2c(n1)N(C1CCCC1)CC1(CC1)C(=O)N2C` [Compound 165, (R)-4-(9′-cyclopentyl-5′-methyl-6′-oxo-5′,6′,8′,9′-tetrahydrospiro[cyclopropane-1,7′-pyrimido[4,5-b][1,4]diazepine]-2′-ylamino)-3-methoxy-N-(1-methylpiperidin-3-yl)benzamide], the IC50 was 1 to 2.51 nM.

`C=C[C@@]1(C)CN(C2CCCC2)c2nc(Nc3ccc(C(=O)NC4CCN(C)CC4)cc3OC)ncc2N(C)C1=O` [Compound 241, (S)-4-(9-cyclopentyl-5,7-dimethyl-6-oxo-7-vinyl-6,7,8,9-tetrahydro-5H-pyrimido[4,5-b][1,4]diazepin-2-ylamino)-3-methoxy-N-(1-methylpiperidin-4-yl)benzamide]: the IC50 is greater than 10 nM.

As to `COc1cc(C(=O)NN2CCN(CCO)CC2)ccc1Nc1ncc2c(n1)N(C1CCCC1)CC(C)(C)C(=O)N2C` [Compound 105, 4-(9-cyclopentyl-5,7,7-trimethyl-6-oxo-6,7,8,9-tetrahydro-5H-pyrimido[4,5-b][1,4]diazepin-2-ylamino)-N-(4-(2-hydroxyethyl)piperazin-1-yl)-3-methoxybenzamide], the IC50 is 1 to 2.51 nM.

Take `COc1cc(C(N)=O)ccc1Nc1ncc2c(n1)N(C1CCCC1)CC(C)(C)C(=O)N2C` [Compound 107, 4-(9-cyclopentyl-5,7,7-trimethyl-6-oxo-6,7,8,9-tetrahydro-5H-pyrimido[4,5-b][1,4]diazepin-2-ylamino)-3-methoxybenzamide]: the IC50 is 3.16 to 10 nM.

As for `COc1cc(C(=O)NC2CCOCC2)ccc1Nc1ncc2c(n1)N(C1CCCC1)CCC(=O)N2C` [Compound 42, 4-(9-cyclopentyl-5-methyl-6-oxo-6,7,8,9-tetrahydro-5H-pyrimido[4,5-b][1,4]diazepin-2-ylamino)-3-methoxy-N-(tetrahydro-2H-pyran-4-yl)benzamide], the IC50 was 3.16 to 10 nM.
